From ChEMBL document CHEMBL3407421, “Design, synthesis, X-ray crystallographic analysis, and biological evaluation of thiazole derivatives as potent and selective inhibitors of human dihydroorotate dehydrogenase” (J Med Chem, 2015)

Experiments:
[1] = Retention time of the compound; type: physicochemical
[2] = molecular target: T1, Dihydroorotate dehydrogenase (Plasmodium falciparum, UniProt Q54A96); assay: Inhibition of Plasmodium falciparum DHODH using dihydroorotate substrate by DCIP assay
T1 sequence (Q54A96 whole entry): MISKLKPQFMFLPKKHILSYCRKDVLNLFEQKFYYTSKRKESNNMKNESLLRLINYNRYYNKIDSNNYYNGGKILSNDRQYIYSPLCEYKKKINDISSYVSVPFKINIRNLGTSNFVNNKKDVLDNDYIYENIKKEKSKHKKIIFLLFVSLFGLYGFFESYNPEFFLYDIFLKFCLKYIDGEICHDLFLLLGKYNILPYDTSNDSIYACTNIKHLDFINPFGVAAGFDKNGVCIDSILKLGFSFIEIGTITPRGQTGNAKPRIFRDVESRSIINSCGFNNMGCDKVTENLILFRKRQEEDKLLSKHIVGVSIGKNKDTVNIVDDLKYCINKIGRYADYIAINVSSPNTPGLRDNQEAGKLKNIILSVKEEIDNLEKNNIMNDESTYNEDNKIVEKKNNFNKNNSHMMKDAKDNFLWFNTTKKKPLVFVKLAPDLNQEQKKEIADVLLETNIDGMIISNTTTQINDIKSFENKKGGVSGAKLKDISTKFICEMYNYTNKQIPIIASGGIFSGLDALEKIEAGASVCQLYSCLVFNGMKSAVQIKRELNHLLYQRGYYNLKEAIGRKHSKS

[3] = molecular target: Dihydroorotate dehydrogenase (quinone), mitochondrial (Homo sapiens, UniProt Q02127)
Chain of Dihydroorotate dehydrogenase (quinone), mitochondrial (Q02127 whole entry): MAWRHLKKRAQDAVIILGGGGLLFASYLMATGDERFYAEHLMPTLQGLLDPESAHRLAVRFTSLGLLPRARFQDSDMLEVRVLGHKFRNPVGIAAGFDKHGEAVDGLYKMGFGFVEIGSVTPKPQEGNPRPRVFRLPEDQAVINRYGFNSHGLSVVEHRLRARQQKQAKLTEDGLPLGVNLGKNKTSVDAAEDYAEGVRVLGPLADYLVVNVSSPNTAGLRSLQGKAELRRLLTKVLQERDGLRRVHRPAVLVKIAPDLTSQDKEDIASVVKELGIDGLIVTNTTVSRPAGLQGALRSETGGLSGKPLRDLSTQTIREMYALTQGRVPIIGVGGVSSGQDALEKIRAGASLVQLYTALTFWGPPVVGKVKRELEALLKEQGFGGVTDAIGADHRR
Description: Inhibition of human DHODH using dihydroorotate substrate by DCIP assay

Rattus norvegicus = assay: Toxicity in ip dosed bovine type-2 collagen-induced Wistar rat arthritic model assessed as change in body weight administered as qd for 28 days starting day after immunization; type: organism-based; details: in vivo, 672 h

| Retention_time [1] | IC50 [2] | IC50 [3] | SMILES | Activity (Rattus norvegicus) |
| --- | --- | --- | --- | --- |
| 11.83 min | > 10 µM | – | CCOC(=O)c1sc(Nc2cc(Cl)cc(Cl)c2)nc1-c1ccccc1 | – |
| 9.56 min | > 10 µM | – | CCOC(=O)c1sc(Nc2ccc(C)c(F)c2)nc1-c1ccccc1 | – |
| 21.11 min | > 10 µM | – | CCOC(=O)c1sc(Nc2ccc(C(C)(C)C)cc2)nc1-c1ccccc1 | – |
| 12.09 min | > 10 µM | – | CCOC(=O)c1sc(Nc2ccc3cc4ccccc4cc3c2)nc1-c1ccccc1 | – |
| 8.06 min | > 10 µM | > 10 µM | CCOC(=O)c1sc(Nc2ccc(Cl)c(C(F)(F)F)c2)nc1NC(=O)c1ccccc1 | – |
| 10.96 min | > 10 µM | > 10 µM | CCOC(=O)c1sc(Nc2ccc(-c3cccc(OC)c3)cc2F)nc1-c1ccccc1 | – |
| 9.95 min | > 10 µM | > 10 µM | CCOC(=O)c1sc(Nc2ccc(OCc3c(F)cccc3Cl)c(Cl)c2)nc1-c1ccccc1 | – |
| 9.86 min | > 10 µM | – | CCOC(=O)c1sc(Nc2ccc(C(F)(F)F)cc2)nc1-c1ccccc1 | – |
| 10.7 min | > 10 µM | – | CCOC(=O)c1sc(Nc2ccc(C)c(Cl)c2)nc1-c1ccccc1 | – |
| 10.27 min | > 10 µM | > 10 µM | CCOC(=O)c1sc(Nc2ccc(Br)cc2C)nc1-c1ccccc1 | – |
| 11.06 min | > 10 µM | – | CCOC(=O)c1sc(Nc2ccc(Cl)c(C(F)(F)F)c2)nc1-c1ccccc1 | – |
| 11.36 min | > 10 µM | – | CCOC(=O)c1sc(Nc2ccc3c(c2)CCCC3)nc1-c1ccccc1 | – |
| 10.81 min | > 10 µM | > 10 µM | CCOC(=O)c1sc(Nc2ccc(-c3ccccc3)cc2)nc1-c1ccccc1 | – |
| 9.84 min | > 10 µM | – | CCOC(=O)c1sc(Nc2ccc(C)c(C)c2)nc1-c1ccccc1 | – |
| 9.51 min | > 10 µM | – | CCOC(=O)c1sc(Nc2c(F)cc(-c3cccc(OC)c3)cc2F)nc1-c1ccccc1 | – |
| 18.44 min | > 10 µM | – | CCOC(=O)c1sc(Nc2ccc(C)c(Cl)c2)nc1C | – |

| Retention_time [1] | IC50 [2] | IC50 [3] | SMILES | Activity (Rattus norvegicus) |
| --- | --- | --- | --- | --- |
| 10.45 min | > 10 µM | > 10 µM | CCOC(=O)c1sc(Nc2ccc(-c3cccc(OC)c3)cc2)nc1-c1ccccc1 | – |
| 9.69 min | > 10 µM | – | CCOC(=O)c1sc(Nc2ccc(Cl)cc2)nc1-c1ccccc1 | – |
| 11.24 min | > 10 µM | > 10 µM | CCOC(=O)c1sc(Nc2ccc(Oc3ccccc3)c(Cl)c2)nc1-c1ccccc1 | – |
| 7.96 min | > 10 µM | – | CCOC(=O)c1sc(Nc2ccccc2)nc1-c1ccccc1 | – |
| – | > 10 µM | – | CCOC(=O)c1sc(Nc2ccc3ccccc3c2)nc1-c1ccccc1 | – |
| 10.42 min | > 10 µM | – | CCOC(=O)c1sc(Nc2ccc3c(c2)CCC3)nc1-c1ccccc1 | Non-toxic |
| 7.54 min | > 10 µM | – | CCOC(=O)c1sc(Nc2ccc(OC)cc2)nc1-c1ccccc1 | – |
| 9.01 min | > 10 µM | – | CCOC(=O)c1sc(Nc2ccc3ccccc3c2)nc1C | – |
| 13.12 min | > 10 µM | – | CCOC(=O)c1sc(Nc2ccc(C)c(Cl)c2)nc1C(C)(C)C | – |
| 7.51 min | > 10 µM | – | CCOC(=O)c1sc(Nc2ccc(C)c(C)c2)nc1NC(=O)c1ccccc1 | – |
| 11.33 min | > 10 µM | > 10 µM | CCOC(=O)c1sc(Nc2ccc(-c3ccccc3)cc2F)nc1-c1ccccc1 | – |
| 7.28 min | > 10 µM | – | CCOC(=O)c1sc(Nc2ccc3c(c2)OCO3)nc1-c1ccccc1 | – |
| 11.11 min | > 10 µM | – | CCOC(=O)c1sc(Nc2ccc(Cl)c(Cl)c2)nc1-c1ccccc1 | – |
| 11.33 min | > 10 µM | – | CCOC(=O)c1sc(Nc2ccc(Br)c(C(F)(F)F)c2)nc1-c1ccccc1 | – |
| 10.92 min | > 10 µM | > 10 µM | CCOC(=O)c1sc(Nc2ccc(OCc3ccccc3)c(Cl)c2)nc1-c1ccccc1 | – |

Further lines, the compound ahead of its results:

| SMILES | Retention_time [1] | IC50 [2] | IC50 [3] | Activity (Rattus norvegicus) |
| --- | --- | --- | --- | --- |
| CCOC(=O)c1sc(Nc2ccc(Cl)c(C(F)(F)F)c2)nc1N | 7.1 min | > 10 µM | > 10 µM | – |
| CC(=O)c1sc(Nc2ccc(C)c(C)c2)nc1C | 12.41 min | 1.49 µM | 3.85 µM | – |
| CCOC(=O)c1sc(Nc2ccc(C)c(C)c2)nc1C1CC1 | 10.18 min | > 10 µM | – | – |
| CC(=O)c1sc(Nc2ccc(C)c(Cl)c2)nc1C | 14.38 min | 0.63 µM | 3.94 µM | – |
| CC(=O)c1sc(Nc2ccc(Br)c(C(F)(F)F)c2)nc1C | 16.48 min | > 10 µM | 1.93 µM | – |
| CCOC(=O)c1sc(Nc2ccc(C)c(C)c2)nc1NC(=O)C1CC1 | 7.61 min | > 10 µM | > 10 µM | – |
| CCOC(=O)c1sc(Nc2ccc(Cl)c(C(F)(F)F)c2)nc1NC(=O)C1CC1 | 7.75 min | > 10 µM | – | – |
| CCOC(=O)c1sc(Nc2ccc(C)c(Cl)c2)nc1C1CC1 | 11.22 min | > 10 µM | – | – |
| CC(=O)c1sc(Nc2ccc(Br)cc2)nc1C | 13.52 min | > 10 µM | > 10 µM | – |
| CC(=O)c1sc(Nc2ccc(Cl)c(C(F)(F)F)c2)nc1C | 16.17 min | 4.27 µM | 2.35 µM | – |
| CCOC(=O)c1sc(Nc2ccc(C)c(F)c2)nc1C | 8.14 min | > 10 µM | – | – |
| CCOC(=O)c1sc(Nc2ccc(C)c(C)c2)nc1N | 9.57 min | > 10 µM | – | – |
| CCOC(=O)c1sc(Nc2ccc(C)c(F)c2)nc1C1CC1 | 9.96 min | > 10 µM | – | – |
| CCOC(=O)c1sc(Nc2ccc(C)c(C)c2)nc1C(C)(C)C | 12.16 min | > 10 µM | – | – |
| CC(=O)c1sc(Nc2ccc(C)c(F)c2)nc1C | 5.82 min | > 10 µM | > 10 µM | – |
| CC(=O)c1sc(Nc2ccccc2)nc1C | 9.94 min | > 10 µM | > 10 µM | – |
| CC(=O)c1sc(Nc2ccc(C(C)(C)C)cc2)nc1C | 14.61 min | > 10 µM | 3.65 µM | – |
| CN(Cc1cnc2nc(N)nc(N)c2n1)c1ccc(C(=O)N[C@@H](CCC(=O)O)C(=O)O)cc1 [METHOTREXATE] | – | – | – | Non-toxic |
| CCOC(=O)c1sc(Nc2ccc(Br)cc2)nc1C | 17.56 min | 2.45 µM | – | – |
| CCOC(=O)c1sc(Nc2ccc(C)c(F)c2)nc1C(C)(C)C | 11.92 min | > 10 µM | – | – |
| CCOC(=O)c1sc(Nc2ccc(C)c(C)c2)nc1C | 16.56 min | > 10 µM | – | – |
| CC(=O)c1sc(Nc2ccc3ccccc3c2)nc1C | 13.39 min | 0.871 µM | 0.562 µM | – |
| CC(=O)c1sc(Nc2ccc3cc4ccccc4cc3c2)nc1C | 16.95 min | > 10 µM | > 10 µM | – |
